# Assay results: patent US7786141B2 (Vertex Pharmaceuticals Incorporated, priority 2004, dated 2010)
# Experiments:
# M4 muscarinic receptor = target: T1, M4 muscarinic receptor (Homo sapiens, UniProt P08173); assay: Functional mobilization of intracellular calcium (FLIPR) in M4-CHO cells; assay type: cell-based; details: M4 receptor, calcium mobilization; for Emax: read-out: M4 Efficacy
# T1 construct: expressed in transfected cells; host or cells: CHO (M4-CHO)
# T1 sequence (P08173 1-479): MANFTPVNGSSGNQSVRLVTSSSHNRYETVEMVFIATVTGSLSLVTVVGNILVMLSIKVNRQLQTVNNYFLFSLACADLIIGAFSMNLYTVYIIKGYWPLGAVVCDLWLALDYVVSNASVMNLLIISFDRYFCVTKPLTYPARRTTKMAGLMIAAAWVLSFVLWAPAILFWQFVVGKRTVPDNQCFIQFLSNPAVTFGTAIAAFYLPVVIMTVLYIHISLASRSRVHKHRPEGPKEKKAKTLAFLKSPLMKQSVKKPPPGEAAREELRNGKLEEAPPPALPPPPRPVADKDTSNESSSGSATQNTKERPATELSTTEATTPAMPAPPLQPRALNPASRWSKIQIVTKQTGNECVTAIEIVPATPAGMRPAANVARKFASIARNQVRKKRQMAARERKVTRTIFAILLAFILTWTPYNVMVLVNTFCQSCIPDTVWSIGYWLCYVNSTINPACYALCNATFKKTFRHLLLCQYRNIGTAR
# Method in brief: (§1)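 Measured via Fluo-3 fluorescence on a FLIPR, CHO cells with either muscarinic subtype received compound in 0.5% DMSO. Antagonism was assessed after 15 min pre-incubation followed by carbachol at each subtype's EC80; agonism from compound addition alone.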
# M1 muscarinic receptor = target: T2, M1 muscarinic receptor (Homo sapiens, UniProt P11229); assay: Functional mobilization of intracellular calcium (FLIPR) in M1-CHO cells; assay type: cell-based; details: M1 receptor, calcium mobilization; for Emax: read-out: M1 Efficacy
# T2 construct: expressed in transfected cells; host or cells: CHO (M1-CHO)
# T2 sequence (P11229 1-460): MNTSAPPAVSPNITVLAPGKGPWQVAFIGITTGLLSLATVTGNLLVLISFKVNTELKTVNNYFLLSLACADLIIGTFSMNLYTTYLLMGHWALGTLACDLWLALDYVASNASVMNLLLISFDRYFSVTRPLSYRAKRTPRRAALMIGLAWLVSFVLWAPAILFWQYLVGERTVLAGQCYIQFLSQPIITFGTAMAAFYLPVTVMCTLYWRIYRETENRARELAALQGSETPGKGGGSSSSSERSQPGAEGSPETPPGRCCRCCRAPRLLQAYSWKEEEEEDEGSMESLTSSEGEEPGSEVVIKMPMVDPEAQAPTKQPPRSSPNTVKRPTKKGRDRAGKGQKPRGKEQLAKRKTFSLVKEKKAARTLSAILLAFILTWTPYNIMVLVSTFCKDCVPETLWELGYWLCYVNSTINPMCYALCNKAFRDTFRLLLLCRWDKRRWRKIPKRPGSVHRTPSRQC
# Method in brief: as §1
Structure (SMILES),M4 Activity (M4 muscarinic receptor),Emax (M4 muscarinic receptor) [%],M1 Activity (M1 muscarinic receptor),Emax (M1 muscarinic receptor) [%],M4 Efficacy (M4 muscarinic receptor),M1 Efficacy (M1 muscarinic receptor)
CC(=O)N1CC2(CCN(C3CCC(C(F)(F)F)CC3)CC2)c2cc(F)ccc21 (stereo not drawn) [compound 236],xx (activity was measured to be between 0.1 μM and 1.0 μM),65 to 85,xxx (activity was measured to be less than 0.1 μM),65 to 85,,
CCOC(=O)N1CCC(CN2CCC3(CC2)CN(C(C)=O)c2ccc(OC)cc23)CC1 [compound 237],xx (activity was measured to be between 0.1 μM and 1.0 μM),< 65,xxx (activity was measured to be less than 0.1 μM),< 65,,
O=C1CC2(CCN(C[C@@H]3C[C@H]4C=C[C@H]3C4)CC2)c2ccccc21 [compound 238],x (activity was measured to be greater than 1.0 μM),< 65,x (activity was measured to be greater than 1.0 μM),< 65,,
CC(=O)N1CC2(CCN(C3CCC[C@@H](C)C3)CC2)c2cc(F)ccc21 (stereo partly drawn) [compound 240],x (activity was measured to be greater than 1.0 μM),> 85,xx (activity was measured to be between 0.1 μM and 1.0 μM),65 to 85,,
Cc1ccc2c(c1)C1(CCN(CC3CCC4CCC3C4)CC1)CN2 (stereo not drawn) [compound 241],x (activity was measured to be greater than 1.0 μM),> 85,xx (activity was measured to be between 0.1 μM and 1.0 μM),< 65,,
O=C1CC2(CCN(C3CCCCCC3)CC2)c2ccccc2N1 [compound 242],xx (activity was measured to be between 0.1 μM and 1.0 μM),> 85,xxx (activity was measured to be less than 0.1 μM),65 to 85,,
O=C(O[C@@H]1CCOC1)N1CC2(CCN(C3CC4CCC(C3)N4C(=O)O[C@@H]3CCOC3)CC2)c2cc(F)ccc21 (stereo partly drawn) [compound 243],x (activity was measured to be greater than 1.0 μM),,xxx (activity was measured to be less than 0.1 μM),,xx (efficacy was calculated to be between 85% and 65%),xx (efficacy was calculated to be between 85% and 65%)
c1ccc2c(c1)NCC21CCN(C2CCC3CCC2C3)CC1 (stereo not drawn) [compound 244],x (activity was measured to be greater than 1.0 μM),65 to 85,xx (activity was measured to be between 0.1 μM and 1.0 μM),65 to 85,,
CCOC(=O)N1CCC(N2CCC3(CC2)CN(C(C)=O)c2ccc(C4CC4)cc23)CC1 [compound 245],xx (activity was measured to be between 0.1 μM and 1.0 μM),> 85,xx (activity was measured to be between 0.1 μM and 1.0 μM),< 65,,
CC(C)C(=O)N(C)[C@H]1CC2(CCN(C[C@H]3C[C@H]4CC[C@H]3C4)CC2)c2ccccc21 [compound 246],xx (activity was measured to be between 0.1 μM and 1.0 μM),> 85,xx (activity was measured to be between 0.1 μM and 1.0 μM),< 65,,
CC(C)(C)COC(=O)N1C2CCC1CC(N1CCC3(CC1)COc1ccc(F)cc13)C2 (stereo not drawn) [compound 247],x (activity was measured to be greater than 1.0 μM),> 85,xx (activity was measured to be between 0.1 μM and 1.0 μM),65 to 85,,
CC(=O)N1CC2(CCN(C3CCCCCCC3)CC2)c2cc(F)ccc21 [compound 248],x (activity was measured to be greater than 1.0 μM),< 65,xx (activity was measured to be between 0.1 μM and 1.0 μM),65 to 85,,
CCOC(=O)N1CCC(N2CCC3(CC2)CN(CC(C)=O)c2ccc(F)cc23)CC1 [compound 249],x (activity was measured to be greater than 1.0 μM),65 to 85,x (activity was measured to be greater than 1.0 μM),65 to 85,,
CCOC(=O)N1CCC(CN2CCC3(CC2)C[C@H](NC(C)=O)c2ccccc23)CC1 [compound 250],x (activity was measured to be greater than 1.0 μM),65 to 85,xx (activity was measured to be between 0.1 μM and 1.0 μM),65 to 85,,
CC(=O)N1CC2(CCN(C3CC[C@@H]4CC[C@@H]3C4)CC2)c2cc(F)ccc21 (stereo partly drawn) [compound 251],x (activity was measured to be greater than 1.0 μM),65 to 85,xx (activity was measured to be between 0.1 μM and 1.0 μM),65 to 85,,
CCCOC(=O)N1CCC(N2CCC3(CC2)CN(C(C)=O)c2ccc(C)cc23)CC1 [compound 252],x (activity was measured to be greater than 1.0 μM),65 to 85,x (activity was measured to be greater than 1.0 μM),< 65,,
CCOC(=O)N1CCC(N2CCC3(CC2)CN(C(C)=O)c2ccc(-c4ccc(C#N)cc4)cc23)CC1 [compound 253],x (activity was measured to be greater than 1.0 μM),65 to 85,xx (activity was measured to be between 0.1 μM and 1.0 μM),65 to 85,,
CCOC(=O)N1CCC(N2CCC3(CC2)CN(C(=O)C2CCC2)c2ccc(F)cc23)CC1 [compound 254],x (activity was measured to be greater than 1.0 μM),65 to 85,x (activity was measured to be greater than 1.0 μM),65 to 85,,
CCNC(=O)N1CC2(CCN(C3CC4CCC(C3)N4C(=O)OCC)CC2)c2cc(F)ccc21 (stereo not drawn) [compound 255],x (activity was measured to be greater than 1.0 μM),< 65,x (activity was measured to be greater than 1.0 μM),< 65,,
CCOC(=O)N1CCC(CN2CCC3(CC2)CN(C(C)=O)c2ccc(Cl)cc23)CC1 [compound 256],xx (activity was measured to be between 0.1 μM and 1.0 μM),< 65,xx (activity was measured to be between 0.1 μM and 1.0 μM),< 65,,
Clc1ccc2c(c1)C1(CCN(C3CCOCC3)CC1)CO2 [compound 257],x (activity was measured to be greater than 1.0 μM),< 65,x (activity was measured to be greater than 1.0 μM),> 85,,
O=C(OC1CCCC1)N1C2CCC1CC(N1CCC3(CCc4ccccc43)CC1)C2 (stereo not drawn) [compound 258],x (activity was measured to be greater than 1.0 μM),< 65,x (activity was measured to be greater than 1.0 μM),65 to 85,,
O=C1Nc2ccccc2C12CCN(C1CC3CCC1C3)CC2 (stereo not drawn) [compound 259],x (activity was measured to be greater than 1.0 μM),< 65,x (activity was measured to be greater than 1.0 μM),65 to 85,,
CCOC(=O)N1CCC(N2CCC3(CC2)CN(C(=O)c2ccncc2)c2ccc(F)cc23)CC1 [compound 260],x (activity was measured to be greater than 1.0 μM),< 65,xxx (activity was measured to be less than 0.1 μM),65 to 85,,
CC(=O)N[C@H]1CC2(CCN(C3CCCCCCC3)CC2)c2ccccc21 [compound 261],x (activity was measured to be greater than 1.0 μM),< 65,xx (activity was measured to be between 0.1 μM and 1.0 μM),< 65,,
CCOC(=O)N1CCC(N2CCC3(CC2)CN(C(=O)c2ccccc2OC)c2ccc(F)cc23)CC1 [compound 262],x (activity was measured to be greater than 1.0 μM),< 65,x (activity was measured to be greater than 1.0 μM),< 65,,
C1=C[C@H]2C[C@H]1C[C@@H]2CN1CCC2(CCc3ccccc32)CC1 [compound 263],xxx (activity was measured to be less than 0.1 μM),< 65,xxx (activity was measured to be less than 0.1 μM),< 65,,
